Counter-ions that a name gives are not always drawn. Like-named read-outs stand apart in the source and are kept apart here.
Columns and labels:
[1] = system: 63 targets with known safety liabilities; assay: In vitro pharmacological profiling (IPP) panel, screening at 10 or 100 µM and dose response, minimum IC50/AC50; type: biochemical; details: lowest AC50 across IPP panel (systemic targets); cell_type -; read-out: ipp_lowest_ac50_systemic PoD
MCF7 cells = assay: High-throughput transcriptomics (HTTr, TempO-Seq), MCF7, 24 h; type: cell-based, human
Experimental: (§1) HepG2, HepaRG, and MCF7 cells were treated with each compound for 24 h across a dose range of 7 concentrations and lysed using TempO-Seq lysis buffer (BioSpyder Technologies, proprietary kit, see [Middleton et al. 2022] for method details). Sequencing was performed using TempO-Seq (BioClavis) version 2 of the human whole transcriptome panel and analyzed as described previously in Middleton et al.

HepG2 cells [2] = assay: High-throughput transcriptomics (HTTr, TempO-Seq), HepG2, 24 h; type: cell-based, human
Experimental: as §1

HepaRG cells = assay: High-throughput transcriptomics (HTTr, TempO-Seq), HepaRG, 24 h; type: cell-based, human
Experimental: as §1

HepG2 cells [3] = assay: Cell stress panel (CSP), 24 h, 8 concentrations, BIFROST global PoD; type: cell-based; details: HepG2; cell stress panel PoD
Experimental: Compounds were tested using the previously developed cell stress panel ([Hatherell et al. 2020]) and the expanded biomarker panel outlined in Middleton et al. HepG2 cells were treated with all compounds for 24 h across 8 concentrations prior to biomarker analysis. The same plate layout and number of replicates (3 biological and 2 technical) were used as previously for each assay within the panel.

Tubulin (r) = assay: IPP Tubulin binding; parameters: species or system rat; details: 100 uM; ligand/control Colchicine
[4] = system: Potassium Voltage-Gated Channel Kv non-selective, KCNQ1 (r); assay: IPP KCNQ1 binding (antagonist radioligand); parameters: species or system rat; details: IPP screening at 100 uM; control α-dendrotoxin
[5] = system: Sodium channel protein type 5 subunit alpha (site 2), SCN5A (r); type: binding, rat; details: IPP screening at 100 uM; control veratridine
[6] = system: Thyroid hormone receptor alpha, THRA (h); assay: IPP THRA coactivator recruitment (agonist); type: biochemical, human; details: 100 uM; agonist; T3; * denotes assay interference (2-Amino-6-chloro-4-nitrophenol, HC Red 3)
[7] = system: Gamma-aminobutyric acid receptor subunit alpha-1 BZD site, GABRA1A (r); type: binding, rat; details: IPP screening at 100 uM; control diazepam
[8] = Assignment of risk classifications to benchmark chemical-exposure scenarios; details: Dermal; […]; Body lotion; Exp1; from table S1
[9] = target: T1, Adenosine receptor A2a, ADORA2A (h) (Homo sapiens, UniProt P29274); assay: IPP ADORA2A binding (agonist radioligand); details: IPP screening at 100 uM; control NECA
T1 construct: purchased Eurofins Cerep (SafetyScreen44-based IPP panel)
T1 sequence (P29274 whole entry): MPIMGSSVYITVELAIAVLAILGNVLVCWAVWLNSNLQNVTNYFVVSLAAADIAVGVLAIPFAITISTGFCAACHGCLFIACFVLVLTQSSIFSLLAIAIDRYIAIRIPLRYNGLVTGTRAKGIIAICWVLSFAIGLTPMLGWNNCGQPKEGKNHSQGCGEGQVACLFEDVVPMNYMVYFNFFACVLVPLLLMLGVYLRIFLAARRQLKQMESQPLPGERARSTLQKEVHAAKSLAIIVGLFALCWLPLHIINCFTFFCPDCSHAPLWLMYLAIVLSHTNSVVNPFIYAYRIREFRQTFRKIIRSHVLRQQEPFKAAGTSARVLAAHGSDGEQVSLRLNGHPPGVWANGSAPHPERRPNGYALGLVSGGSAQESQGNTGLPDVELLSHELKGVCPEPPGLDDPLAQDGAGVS

[10] = system: Glutamate receptor ionotropic NMDA 1 non-selective, GRIN1 (r); details: IPP screening at 100 uM; control CGS 19755
rat = details: ref [19-22], cited from earlier work
[11] = MCF-7, HTTr minimum pathway BMD(L)
[12] = HepG2, HTTr minimum pathway BMD(L)
[13] = HepaRG, HTTr minimum pathway BMD(L)

SMILES | AC50 [1] [µM] | pod_httr_bifrost PoD (MCF7 cells; MCF-7, HTTr BIFROST PoD) [µM] | podl_path_minbmd PoD (MCF7 cells; [11]) [µM] | pod_httr_bifrost PoD (HepG2 cells [2]; HepG2, HTTr BIFROST PoD) [µM] | podl_path_minbmd PoD (HepG2 cells [2]; [12]) [µM] | pod_httr_bifrost PoD (HepaRG cells; HepaRG, HTTr BIFROST PoD) [µM] | podl_path_minbmd PoD (HepaRG cells; [13]) [µM] | pod_cell_stress PoD (HepG2 cells [3]) [µM] | also measured
CCCCOC(=O)c1ccc(O)cc1 [Butyl_4-hydroxybenzoate] | 6.58 | 0.02978 | 0.1304 | 10.9882 | 46.8548 | 66.4882 | 120 |  | 
COc1ccc(O)c(C(C)(C)C)c1 [Butylated_Hydroxyanisole] | 0.6 | 8.844 | 25.2807 | 9.643 | 21.4191 | 6.323 | 13.7136 |  | 
O=C(O)COCCN1CCN(C(c2ccccc2)c2ccc(Cl)cc2)CC1 (stereo not drawn) [Cetirizine_dihydrochloride] | 0.081 | 3.21 | 78.4644 | 9.8579 | 120 | 0.6956 | 13.467 |  | 
O=CCCCC=O [Glutaraldehyde Solution] |  |  |  |  |  |  |  | 37.601 | 
O=CCCCC=O [Glutaraldehyde_Solution] |  | 0.2467 | 50 | 19.467 | 50 | 136.152 | 500 |  | 
Nc1ccc(NCCO)c([N+](=O)[O-])c1 [HC_Red_3] | 2.17 | 0.8099 | 25.6755 | 0.3766 | 1.617 | 0.1851 | 0.9652 |  | 
NNc1nncc2ccccc12 [Hydralazine_hydrochloride] | 1.2 | 0.3784 | 100.098 | 1.708 | 20.4222 | 1.593 | 111.897 |  | 
CCN(CC)CCNC(=O)c1cc(Cl)c(N)cc1OC [Metclopramide] | 0.046 | 18.3439 | 87.28 | 16.0473 | 79.9772 | 30.9764 | 92.5373 | 73.2603 | 
CN(C)[C@@H]1C(O)=C(C(N)=O)C(=O)[C@@]2(O)C(O)=C3C(=O)c4c(O)cccc4[C@@](C)(O)[C@H]3[C@H](O)[C@@H]12 [Oxytetracycline_hydrochloride] |  | 0.6783 | 10.8661 | 1.6523 | 24.772 | 4.2 | 50.4384 | 2.447 | 
CC(C)(CO)C(O)C(=O)NCCCO (stereo not drawn) [Panthenol, 2,4-Dihydroxy-N-(3-hydroxypropyl)-3,3-dimethylbutanamide] |  | 767.225 | 20000 | 7221.82 | 20000 | 65.9596 | 4552.59 | 18298.9 | IPP screening %, Specific binding (Tubulin (r)): -5%; Specific binding [4]: -4.3%; Specific binding [5]: 27.9%; IPP screening %, Coactivator recruitment [6]: 2.0%; Specific binding [7]: -1.9%; risk [8]: 0; Specific binding [9]: 7.3%; HepaRG HTTr: concentration of single responding probe (HepaRG cells; BIFROST probe-level PoD): < 100 µM; HepaRG HTTr: next lowest probe (HepaRG cells; BIFROST probe-level PoD): 5100 µM; Specific binding [10]: 0.2%
O=S(=O)([O-])NC1CCCCC1.[Na+] [Sodium_Cyclamate] |  |  |  |  |  |  |  |  | pod_httr_bifrost PoD (MCF7 cells): 202.953 µM; podl_path_minbmd PoD (MCF7 cells): 1200 µM; pod_httr_bifrost PoD (HepG2 cells [2]): 12.9839 µM; podl_path_minbmd PoD (HepG2 cells [2]): 1200 µM; pod_httr_bifrost PoD (HepaRG cells): 485.622 µM; podl_path_minbmd PoD (HepaRG cells): 442.002 µM
O=C(O)c1ccc2c(c1)C(=O)OC2=O [Trimellitic_anhydride] |  | 423.806 | 854.401 | 404.103 | 1078.54 | 236.503 | 100.049 | 34.7606 | 
COc1ccc(CCN(C)CCCC(C#N)(c2ccc(OC)c(OC)c2)C(C)C)cc1OC (stereo not drawn) [Verapamil_hydrochloride] | 0.017 | 0.3576 | 10.6709 | 1.132 | 8.538 | 1.688 | 24.0605 |  | 
NC1CCCCC1 [cyclohexylamine] |  |  |  |  |  |  |  |  | NOAEL (rat; 90 day rat study, cyclohexylamine administered): 100 mg/kg bw/day; dose at which testicular toxicity was observed (rat; testicular atrophy and giant cell formation): ≥ 200 mg/kg bw/day

Source: paper PMC11879040, “Advancing systemic toxicity risk assessment: Evaluation of a NAM-based toolbox approach” (Toxicological Sciences, 2024)
